Measured values taken from patent US20250257041A1, “INDUCERS OF INTEGRATED STRESS RESPONSE TO TREAT CANCER” (The Board of Regents of The University of Texas System, priority 2022, published 2025).
Where two headings read alike, the source gives them in different places.

Key:
HCT116 WT = experiment: Proliferation of HCT116 colorectal cell line, Cell TiterGlo; type: cell-based, human
Method in brief: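 HCT116 colorectal cells, wild type, GCN2 CRISPR knockout, or wild type plus ISRIB; proliferation read by CellTiter-Glo luminescence. 10-point dose response in triplicate, IC50 reported; multiple values are independent experiments.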

HCT116 GCN2KO = experiment: Proliferation of HCT116 cells with GCN2 knocked out (CRISPR), Cell TiterGlo; type: cell-based, human; conditions: Homo sapiens, HCT-116; HCT116 cells with GCN2 knocked out using CRISPR; read-out: HCT116 IC50 (uM) HCT116 − GCN2KO
Experimental: Briefly, compounds were tested for their effect on proliferation of HCT116 colorectal cell lines using Cell TiterGlo (Promega). Each compound was tested in a 10-point dose response experiment in triplicate. Multiple values in the column titled HCT116 WT reflect separate independent experiments. The three columns titled “HCT116 WT (repeat)”, “HCT116-CGN2KO” and “HCT116 WT+ISRIB” provide data for selected compounds that were tested simultaneously under three conditions. The HCT116 WT column lists IC50 against the wild type HCT116 colorectal cancer cell line. The HCT116-CGN2KO lists IC50 data for cells in which one component of the integrated stress response, GCN2, has been knocked out using CRISPR technology.

[1] = Homo sapiens, HCT-116, wild type HCT116, 10-point dose response in triplicate, multiple values = separate independent experiments, read-out: HCT116 IC50 (uM) HCT116 WT
[2] = Homo sapiens, HCT-116, wild type HCT116, tested simultaneously with GCN2KO and +ISRIB, read-out: HCT116 IC50 (uM) HCT116 WT (repeat)
[3] = wild type HCT116, compound plus 10 nM of ISRIB, read-out: HCT116 IC50 (uM) HCT116 WT + ISRIB

Row | SMILES | IC50 (HCT116 WT; [1]) [µM] | IC50 (HCT116 WT; [2]) [µM] | IC50 (HCT116 GCN2KO) [µM] | IC50 (HCT116 WT; [3]) [µM] | HCT116 IC50 (uM) HCT116 WT (HCT116 WT; wild type HCT116, 10-point dose response in triplicate, multiple values = separate independent experiments)
1 | Cn1nc(-c2ccc(NC(=O)c3ccccc3)cc2)cc1NC(=O)c1ccc(Cl)cc1 [SW393132, N-(3-(4-benzamidophenyl)-1-methyl-1H-pyrazol-5-yl)-4-chlorobenzamide] | > 50 | ≥ 50 | ≥ 50 | – | –
2 | C#Cc1ccc(C(=O)Nc2ccc(-c3cc(NC(=O)c4ccccc4)n(C)n3)cc2)cc1 [SW389007, N-(4-(5-Benzamido-1-methyl-1H-pyrazol-3-yl)phenyl)-4-ethynylbenzamide] | 2 | 4.8 | 5.22 | 4.42 | –
3 | COC(=O)c1ccc(C(=O)Nc2cc(-c3ccc(NC(=O)c4ccccc4)cc3)nn2C)cc1 [SW393130, methyl 4-((3-(4-benzamidophenyl)-1-methyl-1H-pyrazol-5-yl)carbamoyl)benzoate] | 0.92 | 1.87 | ≥ 50 | – | –
4 | Cn1nc(-c2ccc(NC(=O)c3ccc(C(=O)c4ccccc4)cc3)cc2)cc1NC(=O)c1ccccc1 [SW389002, N-(4-(5-Benzamido-1-methyl-1H-pyrazol-3-yl)phenyl)-4-benzoylbenzamide] | 7.1 | 26.4 | 31.9 | 46.3 | –
5 | Cn1nc(-c2ccc(NC(=O)c3cccc(C#N)c3)cc2)cc1NC(=O)c1ccccc1 [SW393069, N-(4-(5-benzamido-1-methyl-1H-pyrazol-3-yl)phenyl)-3-cyanobenzamide] | 17 | 7.43 | 15.2 | 12.7 | –
6 | Cn1nc(-c2ccc(NC(=O)c3ccncc3)cc2)cc1NC(=O)c1ccccc1 [SW393063, N-(4-(5-benzamido-1-methyl-1H-pyrazol-3-yl)phenyl)isonicotinamide] | 3.2 | 2.04 | 3.69 | 3.1 | –
7 | Cn1nc(-c2ccc(NC(=O)c3ccc(Cl)cc3)cc2)cc1NC(=O)c1ccccc1 [SW393072, N-(4-(5-benzamido-1-methyl-1H-pyrazol-3-yl)phenyl)-4-chlorobenzamide] | 3.3 | 2.83 | 11.1 | 13.8 | –
8 | C#CCOc1cccc(C(=O)Nc2ccc(-c3cc(NC(=O)c4ccc(N=[N+]=[N-])cc4)n(C)n3)cc2)c1 [SW393065, N-(4-(5-(4-Azidobenzamido)-1-methyl-1H-pyrazol-3-yl)phenyl)-3-(prop-2-yn-1-yloxy)benza-mide] | 3 | 3.73 | 3.23 | 3.26 | –
9 | COC(=O)c1cccc(C(=O)Nc2ccc(-c3cc(NC(=O)c4ccccc4)n(C)n3)cc2)c1 [SW393068, methyl 3-((4-(5-benzamido-1-methyl-1H-pyrazol-3-yl)phenyl)carbamoyl)benzoate] | 8.3 | 13.6 | 47 | – | –
10 | Cn1nc(-c2ccc(NC(=O)c3ccccc3)cc2)cc1NC(=O)c1cccc(N=[N+]=[N-])c1 [SW389157, 3-Azido-N-(3-(4-benzamidophenyl)-1-methyl-1H-pyrazol-5-yl)benzamide] | 0.405 | 0.21 | 2.77 | 2.5 | –
11 | Cn1nc(-c2ccc(NC(=O)c3ccccc3C(F)(F)F)cc2)cc1NC(=O)c1ccccc1 [SW393124, N-(4-(5-benzamido-1-methyl-1H-pyrazol-3-yl)phenyl)-2-(trifluoromethyl)benzamide] | 0.008 | 0.02 | 0.08 | 0.09 | –
12 | Cc1cccc(C(=O)Nc2cc(-c3ccc(NC(=O)c4ccccc4)cc3)nn2C)c1 [SW389156, N-(3-(4-Benzamidophenyl)-1-methyl-1H-pyrazol-5-yl)-3-methylbenzamide] | 0.298 | 0.28 | 2.22 | 2.45 | –
13 | COc1ccccc1C(=O)Nc1cc(-c2ccc(NC(=O)c3ccccc3)cc2)nn1C [SW389006, N-(3-(4-Benzamidophenyl)-1-methyl-1H-pyrazol-5-yl)-2-methoxybenzamide] | 1.23 | 0.82 | 2.34 | 2.4 | –
14 | COc1ccccc1C(=O)Nc1ccc(-c2cc(NC(=O)c3ccccc3)n(C)n2)cc1 [SW389001, N-(4-(5-Benzamido-1-methyl-1H-pyrazol-3-yl)phenyl)-2-methoxybenzamide] | 0.31 | 0.84 | 6.44 | 7 | –
15 | Cn1nc(-c2ccc(NC(=O)c3c(Cl)cccc3Cl)cc2)cc1NC(=O)c1ccccc1 [SW393144, N-(4-(5-benzamido-1-methyl-1H-pyrazol-3-yl)phenyl)-2,6-dichlorobenzamide] | 0.13 | 0.43 | 2.31 | 2.55 | –
16 | COC(=O)c1ccc(C(=O)Nc2ccc(-c3cc(NC(=O)c4ccccc4)n(C)n3)cc2)cc1 [SW393073, methyl 4-((4-(5-benzamido-1-methyl-1H-pyrazol-3-yl)phenyl)carbamoyl)benzoate] | 14 | 8 | ≥ 50 | – | –
17 | Cn1nc(-c2ccc(NC(=O)c3ccccc3[N+](=O)[O-])cc2)cc1NC(=O)c1ccccc1 [SW393143, N-(4-(5-benzamido-1-methyl-1H-pyrazol-3-yl)phenyl)-2-nitrobenzamide] | 0.01 | 0.02 | 0.12 | 0.14 | –
18 | C#Cc1cccc(C(=O)Nc2cc(-c3ccc(NC(=O)c4ccccc4)cc3)nn2C)c1 [SW389005, N-(3-(4-Benzamidophenyl)-1-methyl-1H-pyrazol-5-yl)-3-ethynylbenzamide] | 0.313 | 0.33 | 2.97 | 2.96 | –
19 | Cn1nc(-c2ccc(NC(=O)c3ccc(C#N)cc3)cc2)cc1NC(=O)c1ccccc1 [SW393061, N-(4-(5-benzamido-1-methyl-1H-pyrazol-3-yl)phenyl)-4-cyanobenzamide] | – | ≥ 50 | ≥ 50 | – | inactive
20 | COC(=O)c1cccc(C(=O)Nc2cc(-c3ccc(NC(=O)c4ccccc4)cc3)nn2C)c1 [SW389153, Methyl 3-((3-(4-benzamidophenyl)-1-methyl-1H-pyrazol-5-yl)carbamoyl)benzoate] | 0.208 | 0.2 | 1.31 | 1.73 | –
21 | Cc1ccccc1C(=O)Nc1ccc(-c2cc(NC(=O)c3ccccc3)n(C)n2)cc1 [SW393134, N-(4-(5-benzamido-1-methyl-1H-pyrazol-3-yl)phenyl)-2-methylbenzamide] | 0.012 | 0.02 | 0.17 | 0.19 | –
22 | Cn1nc(-c2ccc(NC(=O)c3ccccc3)cc2)cc1NC(=O)c1cccc(F)c1 [SW389159, N-(3-(4-Benzamidophenyl)-1-methyl-1H-pyrazol-5-yl)-3-fluorobenzamide] | 0.788 | 0.38 | 2.54 | 2.59 | –
23 | Cn1nc(-c2ccc(NC(=O)c3ccccc3Cl)cc2)cc1NC(=O)c1cccc(C2(C(F)(F)F)N=N2)c1 [SW393172, 2-Chloro-N-(4-(1-methyl-5-(3-(3-(trifluoromethyl)-3H-diazirin-3-yl)benzamido)-1H-pyrazol-3-yl)phenyl)benzamide] | 3.6 | 5.08 | 4.37 | 5.25 | –
24 | Cn1nc(-c2ccc(NS(=O)(=O)c3ccccc3)cc2)cc1NC(=O)c1ccccc1 [SW393070, N-(1-methyl-3-(4-(phenylsulfonamido)phenyl)-1H-pyrazol-5-yl)benzamide] | 16 | 9.06 | 22 | 23.3 | –
25 | C#CCOc1ccc(C(=O)c2ccc(C(=O)Nc3ccc(-c4cc(NC(=O)c5ccccc5)n(C)n4)cc3)cc2)cc1 [SW389010, N-(4-(5-Benzamido-1-methyl-1H-pyrazol-3-yl)phenyl)-4-(4-(prop-2-yn-1-yloxy)benzoyl)benzamide] | 20 | 43.1 | 41.1 | – | –
26 | Cn1nc(-c2ccc(NC(=O)c3cccc(Cl)c3)cc2)cc1NC(=O)c1ccccc1 [SW393062, N-(4-(5-benzamido-1-methyl-1H-pyrazol-3-yl)phenyl)-3-chlorobenzamide] | 2.1 | 2.37 | 10.5 | 8.72 | –
27 | C#Cc1cccc(C(=O)Nc2ccc(-c3cc(NC(=O)c4ccccc4)n(C)n3)cc2)c1 [SW389013, N-(4-(5-Benzamido-1-methyl-1H-pyrazol-3-yl)phenyl)-3-ethynylbenzamide] | 2.79 | 4.21 | 15.8 | 19.8 | –
28 | C#CCN(C(=O)c1ccccc1Cl)c1ccc(-c2cc(NC(=O)c3cccc(C4(C(F)(F)F)N=N4)c3)n(C)n2)cc1 [SW393173, 2-Chloro-N-(4-(1-methyl-5-(3-(3-(trifluoromethyl)-3H-diazirin-3-yl)benzamido)-1H-pyrazol-3-yl)phenyl)-N-(prop-2-yn-1-yl)benzamide] | 2.4 | 4 | 2.9 | 3.11 | –
29 | Cn1nc(-c2ccc(NC(=O)c3ccccc3N=[N+]=[N-])cc2)cc1NC(=O)c1ccccc1 [SW393170, N-(4-(5-benzamido-1-methyl-1H-pyrazol-3-yl)phenyl)-2-azidobenzamide] | 0.03 | 0.12 | 0.93 | 0.84 | –
